Laboratory results taken from patent publication US9546164B2 (GENENTECH, INC., priority 2013, dated 2017).
pIC50: −log10 of the molar value. Counter-ions that a name gives are not always drawn.

Target: hNav1.7 (Homo sapiens (Human), UniProt Q15858)
Experiment: Tritiated sulfonamide competitive binding to membranes from cells expressing hNav1.7 and the β1 subunit;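 also: Filter-bound radioactivity counted by liquid scintillation, nonspecific binding defined with excess unlabelled ligand, IC50 fitted to percent inhibition of specific binding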
Settings: read-out: Ligand Binding Assay; 100 pM [3H]compound, membranes with hNav1.7 and β1 subunit, 18 h, room temperature

Sequence of hNav1.7 (Q15858 other isoform, or with tags, fused parts or gaps): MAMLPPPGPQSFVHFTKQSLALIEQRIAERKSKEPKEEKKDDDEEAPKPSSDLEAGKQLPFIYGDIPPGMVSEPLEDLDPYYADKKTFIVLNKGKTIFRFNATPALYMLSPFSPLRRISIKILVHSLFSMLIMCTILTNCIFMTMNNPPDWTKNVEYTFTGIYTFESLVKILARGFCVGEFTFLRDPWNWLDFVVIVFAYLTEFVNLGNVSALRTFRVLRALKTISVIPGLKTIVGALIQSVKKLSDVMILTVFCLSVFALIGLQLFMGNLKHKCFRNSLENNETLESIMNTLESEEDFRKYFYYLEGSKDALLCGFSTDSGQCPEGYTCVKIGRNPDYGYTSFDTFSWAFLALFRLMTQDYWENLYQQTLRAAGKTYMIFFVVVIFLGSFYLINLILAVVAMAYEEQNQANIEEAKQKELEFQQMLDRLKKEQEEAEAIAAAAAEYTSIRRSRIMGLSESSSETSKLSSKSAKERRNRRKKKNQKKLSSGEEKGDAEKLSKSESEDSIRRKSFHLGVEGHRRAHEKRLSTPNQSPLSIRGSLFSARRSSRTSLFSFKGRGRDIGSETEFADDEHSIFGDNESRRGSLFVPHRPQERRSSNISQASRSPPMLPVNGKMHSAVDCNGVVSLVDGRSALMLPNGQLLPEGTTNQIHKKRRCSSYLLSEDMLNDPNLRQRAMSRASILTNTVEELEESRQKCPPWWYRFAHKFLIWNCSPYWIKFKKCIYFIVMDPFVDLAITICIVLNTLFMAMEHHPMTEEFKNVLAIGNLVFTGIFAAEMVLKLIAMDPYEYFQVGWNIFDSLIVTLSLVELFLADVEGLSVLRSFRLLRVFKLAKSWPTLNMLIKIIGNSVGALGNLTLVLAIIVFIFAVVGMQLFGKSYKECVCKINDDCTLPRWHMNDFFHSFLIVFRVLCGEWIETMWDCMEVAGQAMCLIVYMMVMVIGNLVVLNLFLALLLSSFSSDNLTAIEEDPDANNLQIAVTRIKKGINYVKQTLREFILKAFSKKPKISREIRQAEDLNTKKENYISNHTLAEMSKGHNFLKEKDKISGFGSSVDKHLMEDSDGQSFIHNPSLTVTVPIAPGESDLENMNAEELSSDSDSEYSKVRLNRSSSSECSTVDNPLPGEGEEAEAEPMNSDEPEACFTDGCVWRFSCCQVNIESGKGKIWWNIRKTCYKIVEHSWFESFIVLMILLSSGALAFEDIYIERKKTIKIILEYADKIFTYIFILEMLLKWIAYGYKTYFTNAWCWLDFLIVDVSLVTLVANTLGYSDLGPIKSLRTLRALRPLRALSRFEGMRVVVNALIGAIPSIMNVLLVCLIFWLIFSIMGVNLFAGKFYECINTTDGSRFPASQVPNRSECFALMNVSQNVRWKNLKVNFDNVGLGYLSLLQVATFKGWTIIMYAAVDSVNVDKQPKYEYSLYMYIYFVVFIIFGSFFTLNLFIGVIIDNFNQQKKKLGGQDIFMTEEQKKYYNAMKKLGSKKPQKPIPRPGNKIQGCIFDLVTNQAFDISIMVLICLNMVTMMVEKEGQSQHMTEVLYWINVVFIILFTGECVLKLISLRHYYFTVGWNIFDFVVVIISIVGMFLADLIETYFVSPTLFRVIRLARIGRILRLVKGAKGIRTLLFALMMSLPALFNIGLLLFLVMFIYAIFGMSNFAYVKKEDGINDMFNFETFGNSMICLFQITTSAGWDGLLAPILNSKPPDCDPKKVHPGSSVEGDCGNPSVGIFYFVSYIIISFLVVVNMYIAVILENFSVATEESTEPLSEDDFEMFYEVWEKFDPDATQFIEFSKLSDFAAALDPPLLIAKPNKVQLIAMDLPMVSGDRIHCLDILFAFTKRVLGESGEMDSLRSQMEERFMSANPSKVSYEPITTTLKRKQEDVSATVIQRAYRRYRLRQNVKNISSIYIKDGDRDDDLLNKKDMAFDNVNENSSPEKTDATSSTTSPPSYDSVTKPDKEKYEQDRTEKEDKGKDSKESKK
Sequence of hNav1.7 (Q07699 19-218 partner): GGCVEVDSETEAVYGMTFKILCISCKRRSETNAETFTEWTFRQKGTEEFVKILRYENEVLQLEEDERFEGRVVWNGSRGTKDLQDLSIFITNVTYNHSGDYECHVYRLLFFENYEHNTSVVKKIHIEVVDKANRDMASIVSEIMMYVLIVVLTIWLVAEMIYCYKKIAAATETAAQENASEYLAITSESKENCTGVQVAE

| SMILES | pIC50 |
| --- | --- |
| CCS(=O)(=O)NC(=O)c1cc(C2CC2)c(OC[C@@H]2CC[C@@H](C)N([C@H](C)c3cc(Cl)cc(Cl)c3)C2)cc1F [Example 345, 5-cyclopropyl-4-(((3R,6R)-1-((R)-1-(3,5-dichlorophenyl)ethyl)-6-methylpiperidin-3-yl)methoxy)-N-(ethylsulfonyl-2-fluorobenzamide, trifluoroacetic acid salt] | 8.11 |
| O=C(NS(=O)(=O)C1CC1)c1cc(C2CC2)c(OCC2(F)CCN(Cc3cc(C(F)(F)F)cc(Cl)c3F)CC2)cc1F [Example 347, 4-((1-(3-chloro-2-fluoro-5-(trifluoromethyl)benzyl)-4-fluoropiperidin-4-yl)methoxy)-5-cyclopropyl-N-(cyclopropylsulfonyl)-2-fluorobenzamide, trifluoroacetic acid salt] | 8.20 |
| C[C@@H](c1cc(Cl)cc(Cl)c1)N1CCC(F)(COc2cc(F)c(C(=O)NS(C)(=O)=O)cc2C2CC2)CC1 [Example 349, (S)-5-cyclopropyl-4-((1-(1-(3,5-dichlorophenyl)ethyl)-4-fluoropiperidin-4-yl)methoxy)-2-fluoro-N-(methylsulfonyl)benzamide, trifluoroacetic acid salt] | 8.40 |
| C[C@@H](c1cc(Cl)cc(Cl)c1)N1CCC(F)(COc2cc(F)c(C(=O)NS(=O)(=O)C3CC3)cc2C2CC2)CC1 [Example 350] | 8.35 |
| C[C@H](c1cc(Cl)cc(Cl)c1)N1CCC(F)(COc2cc(F)c(C(=O)NS(C)(=O)=O)cc2C2CC2)CC1 [Example 351, (R)-5-cyclopropyl-4-((1-(1-(3,5-dichlorophenyl)ethyl)-4-fluoropiperidin-4-yl)methoxy)-2-fluoro-N-(methylsulfonyl)benzamide, trifluoroacetic acid] | 8.28 |
| CS(=O)(=O)NC(=O)c1cc(C2CC2)c(OCC2CCN(C(c3cccc(Cl)c3)c3cccc(Cl)c3)CC2)cc1F [Example 352, 4-((1-(bis(3-chlorophenyl)methyl)piperidin-4-yl)methoxy)-5-cyclopropyl-2-fluoro-N-(methylsulfonyl)benzamide, trifluoroacetic acid salt] | 8.70 |
| C[C@H](c1cc(Cl)cc(Cl)c1)N1[C@@H]2CC[C@H]1C[C@H](COc1cc(F)c(C(=O)NS(C)(=O)=O)cc1C1CC1)C2 [Example 353, 5-cyclopropyl-4-(((1R,3S,5S)-8-((R)-1-(3,5-dichlorophenyl)ethyl)-8-azabicyclo[3.2.1]octan-3-yl)methoxy)-2-fluoro-N-(methylsulfonyl)benzamide, trifluoroacetic acid salt] | 7.96 |
| Cc1nc(CN2CCC(COc3cc(F)c(C(=O)NS(=O)(=O)C4CC4)cc3C3CC3)CC2)cs1 [Example 354, 5-cyclopropyl-N-(cyclopropylsulfonyl)-2-fluoro-4-((1-((2-methylthiazol-4-yl)methyl)piperidin-4-yl)methoxy)benzamide, trifluoroacetic acid salt] | 5.57 |
| CC(C)c1nc(CN2CCC(COc3cc(F)c(C(=O)NS(=O)(=O)C4CC4)cc3C3CC3)CC2)cs1 [Example 355, 5-cyclopropyl-N-(cyclopropylsulfonyl)-2-fluoro-4-((1-((2-isopropylthiazol-4-yl)methyl)piperidin-4-yl)methoxy)benzamide trifluoroacetic acid salt] | 6.93 |
| CC(C)Nc1ccc(F)cc1CN1CCC(COc2cc(F)c(C(=O)NS(=O)(=O)C3CC3)cc2C2CC2)CC1 [Example 356, 5-cyclopropyl-N-(cyclopropylsulfonyl)-2-fluoro-4-((1-(5-fluoro-2-(isopropylamino)benzyl)piperidin-4-yl)methoxy)benzamide, trifluoroacetic acid salt] | 8.24 |
| Cn1nc(C(F)(F)F)c(CN2CCC(COc3cc(F)c(C(=O)NS(=O)(=O)C4CC4)cc3C3CC3)CC2)c1Cl [Example 357, 4-((1-((5-chloro-1-methyl-3-(trifluoromethyl)-1H-pyrazol-4-yl)methyl)piperidin-4-yl)methoxy)-5-cyclopropyl-N-(cyclopropylsulfonyl)-2-fluorobenzamide, trifluoroacetic acid salt] | 7.89 |
| CS(=O)(=O)NC(=O)c1cc(C2CC2)c(OCC2CCN(C(CF)c3cc(Cl)cc(Cl)c3)CC2)cc1F (centres unmarked) [Example 358, 5-cyclopropyl-4-((1-(1-(3,5-dichlorophenyl)-2-fluoroethyl)piperidin-4-yl)methoxy)-2-fluoro-N-(methylsulfonyl)benzamide, trifluoroacetic acid salt] | 7.85 |
| Cc1cc(C(=O)NS(=O)(=O)C2CC2)c(F)cc1OCC1CCN([C@@H](C)c2cc(Cl)cc(Cl)c2)CC1 [Example 359, (S)—N-(cyclopropylsulfonyl)-4-((1-(1-(3,5-dichlorophenyl)ethyl)piperidin-4-yl)methoxy)-2-fluoro-5-methylbenzamide trifluoroacetic acid salt] | 7.94 |
| Cc1cc(C(=O)NS(C)(=O)=O)c(F)cc1OCC1CCN([C@@H](C)c2cc(Cl)cc(Cl)c2)CC1 [Example 360, (S)-4-((1-(1-(3,5-dichloro)ethyl)piperidin-4-yl)methoxy)-2-fluoro-5-methyl-N-(methylsulfonyl)benzamide, trifluoroacetic acid] | 7.89 |
| CS(=O)(=O)NC(=O)c1cc(C2CC2)c(OCC2CCN(C(c3ccccc3Cl)c3ccccc3Cl)CC2)cc1F [Example 361, 4-((1-(bis(2-chlorophenyl)methyl)piperidin-4-yl)methoxy)-5-cyclopropyl-2-fluoro-N-(methylsulfonyl)benzamide, trifluoroacetic acid salt] | 8.70 |
| CS(=O)(=O)NC(=O)c1cc(C2CC2)c(OCC2CCN(C(c3ccc(Cl)cc3)c3ccc(Cl)cc3)CC2)cc1F [Example 362, 4-((1-(bis(4-chlorophenyl)methyl)piperidin-4-yl)methoxy)-5-cyclopropyl-2-fluoro-N-(methylsulfonyl)benzamide, trifluoroacetic acid salt] | 8.54 |
| O=C(NS(=O)(=O)C1CC1)c1cc(C2CC2)c(OCC2CCN(C(c3ccc(F)cc3)c3ccc(F)cc3)CC2)cc1F [Example 363, 4-((1-(bis(4-fluorophenyl)methyl)piperidin-4-yl)methoxy)-5-cyclopropyl-N-(cyclopropylsulfonyl)-2-fluorobenzamide, trifluoroacetic acid salt] | 8.24 |
| O=C(NS(=O)(=O)C1CC1)c1cc(C2CC2)c(OCC2CCN(Cc3ncccc3C(F)(F)F)CC2)cc1F [Example 364, 5-cyclopropyl-N-(cyclopropylsulfonyl)-2-fluoro-4-((1-((3-(trifluoromethyl)pyridin-2-yl)methyl)piperidin-4-yl)methoxy)benzamide, trifluoroacetic acid salt] | 7.09 |
| CS(=O)(=O)NC(=O)c1cc(C2CC2)c(OCC2CCN(Cc3ncccc3C(F)(F)F)CC2)cc1F [Example 365, 5-cyclopropyl-2-fluoro-N-(methylsulfonyl)-4-((1-((3-(trifluoromethyl)pyridin-2-yl)methyl)piperidin-4-yl)methoxy)benzamide, trifluoroacetic acid salt] | 6.49 |
| CS(=O)(=O)NC(=O)c1cc(C2CC2)c(OCC2CCN(S(=O)(=O)c3cc(Cl)c(Br)cc3F)CC2)cc1F [Example 366, 4-((1-((4-bromo-5-chloro-2-fluorophenyl)sulfonyl)piperidin-4-yl)methoxy)-5-cyclopropyl-2-fluoro-N-(methylsulfonyl)benzamide] | 8.04 |
